Reference: ChEMBL document CHEMBL1649134, “Occurrence of efflux mechanism and cephalosporinase variant in a population of Enterobacter aerogenes and Klebsiella pneumoniae isolates producing extended-spectrum beta-lactamases” (2009)
In brackets after ≈: the same amount, converted by molar mass.

Assays:
Format in all cases: functional
[1] = tested on: Klebsiella aerogenes; assay: Antimicrobial activity against multidrug resistant Enterobacter aerogenes isolate 15 by broth dilution method in presence of 26.3 mg/L efflux pump inhibitor phenylalanine-arginine-beta-naphthylamide
[2] = tested on: Klebsiella aerogenes; assay: Antimicrobial activity against multidrug resistant Enterobacter aerogenes isolate 16 by broth dilution method in presence of 26.3 mg/L efflux pump inhibitor phenylalanine-arginine-beta-naphthylamide
[3] = tested on: Klebsiella aerogenes; assay: Antimicrobial activity against multidrug resistant Enterobacter aerogenes isolate 18 by broth dilution method in presence of 26.3 mg/L efflux pump inhibitor phenylalanine-arginine-beta-naphthylamide
[4] = tested on: Klebsiella aerogenes; assay: Antimicrobial activity against multidrug resistant Enterobacter aerogenes isolate 23 by broth dilution method in presence of 26.3 mg/L efflux pump inhibitor phenylalanine-arginine-beta-naphthylamide
[5] = tested on: Klebsiella aerogenes; assay: Antimicrobial activity against multidrug resistant Enterobacter aerogenes isolate 25 by broth dilution method in presence of 26.3 mg/L efflux pump inhibitor phenylalanine-arginine-beta-naphthylamide
[6] = tested on: Klebsiella aerogenes; assay: Antimicrobial activity against multidrug resistant Enterobacter aerogenes isolate 26 by broth dilution method in presence of 26.3 mg/L efflux pump inhibitor phenylalanine-arginine-beta-naphthylamide
[7] = tested on: Klebsiella pneumoniae; assay: Antimicrobial activity against multidrug resistant Klebsiella pneumoniae isolate 1 by broth dilution method in presence of 26.3 mg/L efflux pump inhibitor phenylalanine-arginine-beta-naphthylamide
[8] = tested on: Klebsiella pneumoniae; assay: Antimicrobial activity against multidrug resistant Klebsiella pneumoniae isolate 3 by broth dilution method in presence of 26.3 mg/L efflux pump inhibitor phenylalanine-arginine-beta-naphthylamide
[9] = tested on: Klebsiella pneumoniae; assay: Antimicrobial activity against multidrug resistant Klebsiella pneumoniae isolate 5 by broth dilution method in presence of 26.3 mg/L efflux pump inhibitor phenylalanine-arginine-beta-naphthylamide
[10] = tested on: Klebsiella pneumoniae; assay: Antimicrobial activity against multidrug resistant Klebsiella pneumoniae isolate 8 by broth dilution method in presence of 26.3 mg/L efflux pump inhibitor phenylalanine-arginine-beta-naphthylamide
[11] = tested on: Klebsiella pneumoniae; assay: Antimicrobial activity against multidrug resistant Klebsiella pneumoniae isolate 14 by broth dilution method in presence of 26.3 mg/L efflux pump inhibitor phenylalanine-arginine-beta-naphthylamide
[12] = tested on: Klebsiella pneumoniae; assay: Antimicrobial activity against multidrug resistant Klebsiella pneumoniae isolate 16 by broth dilution method in presence of 26.3 mg/L efflux pump inhibitor phenylalanine-arginine-beta-naphthylamide
[13] = tested on: Klebsiella aerogenes; assay: Antimicrobial activity against multidrug resistant Enterobacter aerogenes ATCC 15038 by broth dilution method in presence of 26.3 mg/L efflux pump inhibitor phenylalanine-arginine-beta-naphthylamide
[14] = tested on: Klebsiella aerogenes; assay: Antimicrobial activity against multidrug resistant Enterobacter aerogenes isolate 3 by broth dilution method
[15] = tested on: Klebsiella aerogenes; assay: Antimicrobial activity against multidrug resistant Enterobacter aerogenes isolate 5 by broth dilution method
[16] = tested on: Klebsiella aerogenes; assay: Antimicrobial activity against multidrug resistant Enterobacter aerogenes isolate 7 by broth dilution method
[17] = tested on: Klebsiella aerogenes; assay: Antimicrobial activity against multidrug resistant Enterobacter aerogenes isolate 9 by broth dilution method
[18] = tested on: Klebsiella aerogenes; assay: Antimicrobial activity against multidrug resistant Enterobacter aerogenes isolate 12 by broth dilution method
[19] = tested on: Klebsiella aerogenes; assay: Antimicrobial activity against multidrug resistant Enterobacter aerogenes isolate 14 by broth dilution method
[20] = tested on: Klebsiella aerogenes; assay: Antimicrobial activity against multidrug resistant Enterobacter aerogenes isolate 15 by broth dilution method
[21] = tested on: Klebsiella aerogenes; assay: Antimicrobial activity against multidrug resistant Enterobacter aerogenes isolate 16 by broth dilution method
[22] = tested on: Klebsiella aerogenes; assay: Antimicrobial activity against multidrug resistant Enterobacter aerogenes isolate 18 by broth dilution method
[23] = tested on: Klebsiella aerogenes; assay: Antimicrobial activity against multidrug resistant Enterobacter aerogenes isolate 21 by broth dilution method
[24] = tested on: Klebsiella aerogenes; assay: Antimicrobial activity against multidrug resistant Enterobacter aerogenes isolate 25 by broth dilution method
[25] = tested on: Klebsiella aerogenes; assay: Antimicrobial activity against multidrug resistant Enterobacter aerogenes isolate 26 by broth dilution method
[26] = tested on: Klebsiella pneumoniae; assay: Antimicrobial activity against multidrug resistant Klebsiella pneumoniae isolate 4 by broth dilution method
[27] = tested on: Klebsiella pneumoniae; assay: Antimicrobial activity against multidrug resistant Klebsiella pneumoniae isolate 5 by broth dilution method
[28] = tested on: Klebsiella pneumoniae; assay: Antimicrobial activity against multidrug resistant Klebsiella pneumoniae isolate 6 by broth dilution method
[29] = tested on: Klebsiella pneumoniae; assay: Antimicrobial activity against multidrug resistant Klebsiella pneumoniae isolate 10 by broth dilution method
[30] = tested on: Klebsiella pneumoniae; assay: Antimicrobial activity against multidrug resistant Klebsiella pneumoniae isolate 11 by broth dilution method
[31] = tested on: Klebsiella pneumoniae; assay: Antimicrobial activity against multidrug resistant Klebsiella pneumoniae isolate 12 by broth dilution method
[32] = tested on: Klebsiella aerogenes; assay: Antimicrobial activity against multidrug resistant Enterobacter aerogenes ATCC 15038 by broth dilution method
[33] = tested on: Klebsiella aerogenes; assay: Antimicrobial activity against multidrug resistant Enterobacter aerogenes isolate 1 by broth dilution method in presence of 26.3 mg/L efflux pump inhibitor phenylalanine-arginine-beta-naphthylamide
[34] = tested on: Klebsiella aerogenes; assay: Antimicrobial activity against multidrug resistant Enterobacter aerogenes isolate 2 by broth dilution method in presence of 26.3 mg/L efflux pump inhibitor phenylalanine-arginine-beta-naphthylamide
[35] = tested on: Klebsiella aerogenes; assay: Antimicrobial activity against multidrug resistant Enterobacter aerogenes isolate 3 by broth dilution method in presence of 26.3 mg/L efflux pump inhibitor phenylalanine-arginine-beta-naphthylamide
[36] = tested on: Klebsiella aerogenes; assay: Antimicrobial activity against multidrug resistant Enterobacter aerogenes isolate 5 by broth dilution method in presence of 26.3 mg/L efflux pump inhibitor phenylalanine-arginine-beta-naphthylamide
[37] = tested on: Klebsiella aerogenes; assay: Antimicrobial activity against multidrug resistant Enterobacter aerogenes isolate 9 by broth dilution method in presence of 26.3 mg/L efflux pump inhibitor phenylalanine-arginine-beta-naphthylamide
[38] = tested on: Klebsiella aerogenes; assay: Antimicrobial activity against multidrug resistant Enterobacter aerogenes isolate 10 by broth dilution method in presence of 26.3 mg/L efflux pump inhibitor phenylalanine-arginine-beta-naphthylamide
[39] = tested on: Klebsiella aerogenes; assay: Antimicrobial activity against multidrug resistant Enterobacter aerogenes isolate 13 by broth dilution method in presence of 26.3 mg/L efflux pump inhibitor phenylalanine-arginine-beta-naphthylamide
[40] = tested on: Klebsiella aerogenes; assay: Antimicrobial activity against multidrug resistant Enterobacter aerogenes isolate 14 by broth dilution method in presence of 26.3 mg/L efflux pump inhibitor phenylalanine-arginine-beta-naphthylamide

Structure (SMILES) | MIC [1] | MIC [2] | MIC [3] | MIC [4] | MIC [5] | MIC [6] | MIC [7] | MIC [8] | MIC [9] | MIC [10] | MIC [11] | MIC [12] | MIC [13] | MIC [14] | MIC [15] | MIC [16] | MIC [17] | MIC [18] | MIC [19] | MIC [20] | further results
O=C(N[C@H](CO)[C@H](O)c1ccc([N+](=O)[O-])cc1)C(Cl)Cl [CHLORAMPHENICOL] | 64 µg/mL | 64 µg/mL | 4 µg/mL | 64 µg/mL | 64 µg/mL | 32 µg/mL | 8 µg/mL | 4 µg/mL | 2 µg/mL | 2 µg/mL | 2 µg/mL | 4 µg/mL | 1 µg/mL | 1020 µg/mL (≈ 3170 µM) | > 1020 µg/mL | 1020 µg/mL (≈ 3170 µM) | 256 µg/mL (≈ 792 µM) | 1020 µg/mL (≈ 3170 µM) | 512 µg/mL (≈ 1580 µM) | 512 µg/mL (≈ 1580 µM) | MIC [21]: 512 µg/mL (≈ 1580 µM); MIC [22]: 32 µg/mL (≈ 99 µM); MIC [23]: 1020 µg/mL (≈ 3170 µM); MIC [24]: 512 µg/mL (≈ 1580 µM); MIC [25]: 256 µg/mL (≈ 792 µM); MIC [26]: 4 µg/mL (≈ 12.4 µM); MIC [27]: 32 µg/mL (≈ 99 µM); MIC [28]: 32 µg/mL (≈ 99 µM); MIC [29]: 4 µg/mL (≈ 12.4 µM); MIC [30]: 8 µg/mL (≈ 24.8 µM); MIC [31]: 64 µg/mL (≈ 198 µM); MIC [32]: 2 µg/mL (≈ 6.19 µM); MIC [33]: 128 µg/mL; MIC [34]: 64 µg/mL; MIC [35]: 128 µg/mL; MIC [36]: 128 µg/mL; MIC [37]: 64 µg/mL; MIC [38]: 128 µg/mL; MIC [39]: 64 µg/mL; MIC [40]: 64 µg/mL
CCn1cc(C(=O)O)c(=O)c2cc(F)c(N3CCNCC3)cc21 [NORFLOXACIN] | 128 µg/mL | 128 µg/mL | 128 µg/mL | 256 µg/mL | 128 µg/mL | 128 µg/mL | 2 µg/mL | 128 µg/mL | 0.5 µg/mL | 0.25 µg/mL | 0.25 µg/mL | 0.5 µg/mL | 0.125 µg/mL | 256 µg/mL (≈ 802 µM) | 512 µg/mL (≈ 1600 µM) | 256 µg/mL (≈ 802 µM) | 128 µg/mL (≈ 401 µM) | 512 µg/mL (≈ 1600 µM) | 512 µg/mL (≈ 1600 µM) | 512 µg/mL (≈ 1600 µM) | MIC [21]: 512 µg/mL (≈ 1600 µM); MIC [22]: 128 µg/mL (≈ 401 µM); MIC [23]: 512 µg/mL (≈ 1600 µM); MIC [24]: 256 µg/mL (≈ 802 µM); MIC [25]: 256 µg/mL (≈ 802 µM); MIC [26]: 128 µg/mL (≈ 401 µM); MIC [27]: 2 µg/mL (≈ 6.26 µM); MIC [28]: 1 µg/mL (≈ 3.13 µM); MIC [29]: 128 µg/mL (≈ 401 µM); MIC [30]: 64 µg/mL (≈ 200 µM); MIC [31]: 8 µg/mL (≈ 25.1 µM); MIC [32]: 0.125 µg/mL (≈ 0.391 µM); MIC [33]: 256 µg/mL; MIC [34]: 256 µg/mL; MIC [35]: 256 µg/mL; MIC [36]: 512 µg/mL; MIC [37]: 128 µg/mL; MIC [38]: 256 µg/mL; MIC [39]: 512 µg/mL; MIC [40]: 512 µg/mL
